Laboratory results: the NIST ThermoML archive (doi:10.1016/j.jct.2011.05.003)
Numbers after ± are expanded uncertainties.

Experiment: xn = mol fraction of the nth substance listed
Settings: Liquid; for speed of sound: 101 kPa, Sing-around technique in a fixed-path interferometer; for mass density: 101.3 kPa, Vibrating tube method

CCCCCC(C)=O [2-heptanone] + CCN(CC)CC
Settings | mass density [kg/m3] | speed of sound [m/s]
293.15 K, x1 = 0.0636 | 733.182 ± 0.17 | 1141.8 ± 0.8
293.15 K, x1 = 0.1061 | 737.185 ± 0.17 | 1148.4 ± 0.82
293.15 K, x1 = 0.1585 | 741.934 ± 0.17 | 1156 ± 0.84
293.15 K, x1 = 0.2077 | 746.426 ± 0.17 | 1163.5 ± 0.86
293.15 K, x1 = 0.2536 | 750.6 ± 0.18 | 1170.4 ± 0.88
293.15 K, x1 = 0.3091 | 755.621 ± 0.18 | 1178.7 ± 0.9
293.15 K, x1 = 0.3614 | 760.322 ± 0.18 | 1186.6 ± 0.92
293.15 K, x1 = 0.4043 | 764.18 ± 0.19 | 1193.1 ± 0.94
293.15 K, x1 = 0.4621 | 769.325 ± 0.19 | 1201.9 ± 0.96
293.15 K, x1 = 0.5022 | 772.887 ± 0.2 | 1208 ± 0.98
293.15 K, x1 = 0.5577 | 777.79 ± 0.2 | 1216.3 ± 1
293.15 K, x1 = 0.6078 | 782.199 ± 0.2 | 1223.9 ± 1
293.15 K, x1 = 0.6604 | 786.734 ± 0.2 | 1231.8 ± 1.1
293.15 K, x1 = 0.7001 | 790.167 ± 0.21 | 1237.8 ± 1.1
293.15 K, x1 = 0.749 | 794.387 ± 0.21 | 1245 ± 1.1
293.15 K, x1 = 0.7968 | 798.46 ± 0.21 | 1252.1 ± 1.1
293.15 K, x1 = 0.8517 | 803.051 ± 0.22 | 1260.2 ± 1.1
293.15 K, x1 = 0.9008 | 807.18 ± 0.23 | 1267.3 ± 1.1
293.15 K, x1 = 0.9507 | 811.366 ± 0.23 | 1274.7 ± 1.2
298.15 K, x1 = 0.0574 | 727.994 ± 0.17 | 1119.4 ± 0.8
298.15 K, x1 = 0.105 | 732.47 ± 0.17 | 1126.8 ± 0.81
298.15 K, x1 = 0.1619 | 737.667 ± 0.17 | 1135.5 ± 0.84
298.15 K, x1 = 0.2068 | 741.77 ± 0.18 | 1142.1 ± 0.85
298.15 K, x1 = 0.2598 | 746.582 ± 0.18 | 1150.2 ± 0.87
298.15 K, x1 = 0.3075 | 750.925 ± 0.18 | 1157.5 ± 0.89
298.15 K, x1 = 0.3578 | 755.443 ± 0.18 | 1165.2 ± 0.92
298.15 K, x1 = 0.4081 | 759.984 ± 0.19 | 1172.9 ± 0.94
298.15 K, x1 = 0.4548 | 764.166 ± 0.19 | 1180.1 ± 0.96
298.15 K, x1 = 0.5032 | 768.476 ± 0.2 | 1187.5 ± 0.98
298.15 K, x1 = 0.5545 | 773.017 ± 0.2 | 1195.4 ± 1
298.15 K, x1 = 0.6103 | 777.928 ± 0.2 | 1204 ± 1
298.15 K, x1 = 0.6579 | 782.088 ± 0.2 | 1211.3 ± 1
298.15 K, x1 = 0.6994 | 785.697 ± 0.21 | 1217.6 ± 1.1
298.15 K, x1 = 0.7484 | 789.941 ± 0.21 | 1225.1 ± 1.1
298.15 K, x1 = 0.8031 | 794.633 ± 0.22 | 1233.3 ± 1.1
298.15 K, x1 = 0.8576 | 799.228 ± 0.22 | 1241.5 ± 1.1
298.15 K, x1 = 0.9014 | 802.909 ± 0.23 | 1247.9 ± 1.1
298.15 K, x1 = 0.9462 | 806.662 ± 0.23 | 1254.6 ± 1.2
303.15 K, x1 = 0.0612 | 723.838 ± 0.17 | 1100.1 ± 0.79
303.15 K, x1 = 0.1056 | 727.95 ± 0.17 | 1106.8 ± 0.81
303.15 K, x1 = 0.1602 | 732.935 ± 0.17 | 1115.1 ± 0.83
303.15 K, x1 = 0.2068 | 737.166 ± 0.18 | 1122.2 ± 0.85
303.15 K, x1 = 0.2606 | 742.09 ± 0.18 | 1130.5 ± 0.87
303.15 K, x1 = 0.3086 | 746.453 ± 0.18 | 1137.9 ± 0.89
303.15 K, x1 = 0.3583 | 750.968 ± 0.19 | 1145.7 ± 0.91
303.15 K, x1 = 0.4082 | 755.492 ± 0.19 | 1153.5 ± 0.93
303.15 K, x1 = 0.4553 | 759.737 ± 0.19 | 1160.8 ± 0.95
303.15 K, x1 = 0.5042 | 764.098 ± 0.2 | 1168.4 ± 0.97
303.15 K, x1 = 0.5983 | 772.43 ± 0.2 | 1183.1 ± 1
303.15 K, x1 = 0.6536 | 777.279 ± 0.2 | 1191.6 ± 1
303.15 K, x1 = 0.7031 | 781.622 ± 0.21 | 1199.3 ± 1.1
303.15 K, x1 = 0.7452 | 785.267 ± 0.21 | 1205.8 ± 1.1
303.15 K, x1 = 0.8088 | 790.717 ± 0.22 | 1215.5 ± 1.1
303.15 K, x1 = 0.8489 | 794.102 ± 0.22 | 1221.5 ± 1.1
303.15 K, x1 = 0.9007 | 798.491 ± 0.23 | 1229.2 ± 1.1
303.15 K, x1 = 0.9503 | 802.71 ± 0.23 | 1235.8 ± 1.2
